Assay [1] concerns HN5 tumor cells. Put plainly: Cell growth inhibition assay (CellTiter-Glo), HN5. Type of assay: cell-based, Human. The settings on record: 3 days incubation. As for the experimental part:
(§1) Human breast tumor cells (BT474) were cultured in RPMI (Mediatech […]), containing 10% FBS (JRH Biosciences 12176) and 1% penicillin-streptomycin (Invitrogen 15140). Human head and neck tumor cells (HN5) were cultured in high glucose DMEM (Mediatech 50-013-PB) containing 10% FBS and 1% penicillin-streptomycin. Human colon tumor cells (Colo205) were cultured in RPMI (Mediatech 50-020-PB) containing 10% FBS and 1% penicillin-streptomycin. Human melanoma cancer cells (SK-MEL-28) were cultured in EMEM with nonessential amino acids (Mediatech 50-011-PB) containing 10% FBS, 1% sodium pyruvate (JT Baker 3354-04), and 1% penicillin-streptomycin. Human melanoma cancer cells (A375P F11s) were cultured in RPMI (Mediatech 50-020-PB) containing 10% FBS, 1% sodium pyruvate, and 1% penicillin-streptomycin. Human colon cancer cells (HT-29) were cultured in high glucose DMEM (Mediatech 50-013-PB) containing 10% FBS and 1% penicillin-streptomycin. Human melanoma cancer cells (SK-MEL-3) were cultured in McCoy's 5A (50-025-PB) containing 15% FBS, and 1% penicillin-streptomycin. All cell lines were maintained at 37° C. in a humidified 5% CO2, 95% air incubator. Cells were harvested using trypsin/EDTA (Invitrogen 25200), counted using a haemocytometer, and plated. For 96-well assays (using white full-area NUNC plates cat. #136102), cells were plated in 105 μL at the following densities (cells/well): HNS, 500; Colo 205, 500; SK-MEL-28, 500; A375P F11s, 500; HT-29, 500; SK-MEL-3, 500; and BT474, 3000. For 384-well assays (white full-area NUNC plates, cat. #781080), cells were plated in 48 μL at the following densities (cells/well): HNS, 500; Colo205, 500; SK-MEL-28, 500; A375P F11s, 500; HT-29, 500; SK-MEL-3, 500; and BT474, 2000.
(§2) The next day, compounds were diluted as follow: For 96-well assays, 13.5 μL of compound in DMSO were diluted using nine (9) serial 1:3 dilutions of 4.5 μL in 9 of DMSO. Medium (270 μL/well of RPMI with 10% FBS and 1% penicillin-streptomycin) was added to the plates. Aliquots (7 μL) were added to cells in the final assay giving a final DMSO concentration of 0.2%. For 384-well assays, 15 μL of compound in DMSO were diluted using nine (9) serial 1:3 dilutions of 5 μL in 10 μL of DMSO, followed by a further dilution of 5 μL of compound with 95 μL of medium, of which 2 μL were added to cells in the final assay giving a final DMSO concentration of 0.2%. Cells were incubated at 37° C., 5% CO2 for 3 days.
(§3) Total ATP was measured (as a surrogate estimate of cell number) using CellTiter-Glo® reagent (Promega G7571). Briefly, plates were removed from the incubator and allowed to equilibrate to room temperature for 30 minutes. CellTiter-Glo® (25 μL or 55 μL for 384-well or 96-well assays, respectively) reagent was added to each well and plates were shaken on an orbital plate shaker for 2 minutes. Plates were incubated without shaking for a further 30 minutes and read on an LJL Analyst GT reader in luminometer mode with an integration time of 0.5 seconds per well. Percent inhibition of cell growth was calculated relative to DMSO vehicle-treated control wells. Concentration of compound required to give 50% inhibition of vehicle-treated control cell growth (IC50) was interpolated using a 4-parameter fit for determining IC50 using the following equation: Y=A +((B−A)/(1+((C/X)̂D))) where […].
In general terms: ATP-based viability assays read luminescence as a measure of living cells.

Assay [2] has as its system BT474 tumor cells. Put plainly: Cell growth inhibition assay (CellTiter-Glo), BT474. The class given is cell-based, Human. The settings on record: 3 days incubation. How it is done:
as §1, §2, §3

Assay [3] addresses T1, EGFR (Homo sapiens, UniProt P00533).
T1 construct: made in house; host or cells: baculovirus expression system
Put plainly: EGFR substrate phosphorylation assay (HTRF). The class given is biochemical. A digest of the protocol:
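Baculovirus-expressed EGFR (0.8 nM) or ErbB2 (10 nM) in enzyme mix, preincubated 1 h at 20 °C with compound (0.00027–47.6 μM final), then 90 min at 20 °C with substrate mix of 20 μM ATP, 0.8 uM biotinylated Peptide C, MnCl2, MOPS pH 7.5. Phosphotyrosine by HTRF; pIC50 reported.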
(In general: Time-resolved FRET reads energy transfer from a long-lived donor to a nearby acceptor.)

Assay [4] deals with HT-29 tumor cells. Put plainly: Cell growth inhibition assay (CellTiter-Glo), HT-29. The class given is cell-based, Human. The conditions noted are these: for IC50: Homo sapiens. As for the experimental part:
as §1, §2, §3

Where a name gives a salt, the structure may show the parent alone.

T1 sequence (P00533 25-1210): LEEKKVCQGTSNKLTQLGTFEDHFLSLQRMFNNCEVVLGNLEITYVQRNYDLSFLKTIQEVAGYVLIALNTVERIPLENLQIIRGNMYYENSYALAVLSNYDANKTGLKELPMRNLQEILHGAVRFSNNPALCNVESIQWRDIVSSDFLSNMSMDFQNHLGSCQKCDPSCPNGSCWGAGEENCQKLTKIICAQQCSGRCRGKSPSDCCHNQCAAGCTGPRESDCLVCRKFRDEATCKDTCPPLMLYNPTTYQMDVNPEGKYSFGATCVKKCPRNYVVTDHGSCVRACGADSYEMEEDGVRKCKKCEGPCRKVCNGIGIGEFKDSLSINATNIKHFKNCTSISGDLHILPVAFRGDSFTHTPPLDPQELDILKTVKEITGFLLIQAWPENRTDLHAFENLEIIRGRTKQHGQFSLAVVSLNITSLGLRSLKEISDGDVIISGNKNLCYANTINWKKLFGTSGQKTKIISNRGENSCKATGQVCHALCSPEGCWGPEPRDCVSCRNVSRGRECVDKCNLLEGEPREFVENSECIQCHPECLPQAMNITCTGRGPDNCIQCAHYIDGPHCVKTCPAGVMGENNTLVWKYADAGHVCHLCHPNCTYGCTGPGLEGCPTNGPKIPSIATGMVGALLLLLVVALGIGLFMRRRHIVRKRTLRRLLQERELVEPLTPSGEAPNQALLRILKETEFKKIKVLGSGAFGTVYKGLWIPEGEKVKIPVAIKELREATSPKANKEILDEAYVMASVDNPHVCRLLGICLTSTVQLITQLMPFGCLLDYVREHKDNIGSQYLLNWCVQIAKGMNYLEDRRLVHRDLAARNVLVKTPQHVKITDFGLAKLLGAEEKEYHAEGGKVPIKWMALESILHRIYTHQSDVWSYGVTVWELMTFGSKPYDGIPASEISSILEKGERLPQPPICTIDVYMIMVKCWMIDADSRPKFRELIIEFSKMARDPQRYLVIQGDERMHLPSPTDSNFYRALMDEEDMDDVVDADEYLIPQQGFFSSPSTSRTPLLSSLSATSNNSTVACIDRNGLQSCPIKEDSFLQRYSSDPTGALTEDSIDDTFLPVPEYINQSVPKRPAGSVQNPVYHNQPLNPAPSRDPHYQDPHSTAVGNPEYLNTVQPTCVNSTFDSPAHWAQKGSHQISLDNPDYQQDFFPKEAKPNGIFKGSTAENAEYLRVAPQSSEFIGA

With `CCNc1nc(-c2cccc(NS(=O)(=O)c3ccccc3)c2)c(-c2ccnc(Nc3ccc(OCCN4CCCC4)c(F)c3)n2)s1` [Example 1, N-(3-(2-(Ethylamino)-5-{2-[(3-fluoro-4-[[2-(1-pyrrolidinyl)ethyl]oxy}phenyl)amino]-4-pyrimidinyl}-1,3-thiazol-4-yl)phenyl]benzenesulfonamide], the IC50 in assay [1] was 100 to 1000 nM; in assay [2] it was 100 to 1000 nM; in assay [3] it was less than 100 nM. Also, in assay [4], the “Activity in HT-29 Tumor Cells” value was “++ (activity of between 100 nM and 1 μM in HT-29 tumor cells)”.

In the case of `COCCN1CCN(c2ccc(Nc3nccc(-c4sc(C(C)C)nc4-c4cccc(NS(=O)(=O)c5ccccc5)c4)n3)cn2)CC1` [Example 6, N-[3-(2-(1-Methylethyl)-5-{2-[(6-{4-[2-(methyloxy)ethyl]-1-piperazinyl}-3-pyridinyl)amino]-4-pyrimidinyl}-1,3-thiazol-4-yl)phenyl]benzenesulfonamide], the IC50 in assay [1] (Homo sapiens, 72 h) is 100 to 1000 nM; in assay [2] (Homo sapiens, BT-474, 72 h) it was greater than 1000 nM; in assay [3] it was greater than 1000 nM; in assay [4], less than 100 nM.

As to `CC(C)c1nc(-c2cccc(NS(=O)(=O)c3ccccc3)c2)c(-c2ccnc(Nc3ccc(N4CCOCC4)nc3)n2)s1` [Example 8, N-{3-[2-(1-Methylethyl)-5-(2-{[6-(4-morpholinyl)-3-pyridinyl]amino}-4-pyrimidinyl)-1,3-thiazol-4-yl]phenyl}benzenesulfonamide hydrochloride], the IC50 in assay [1] (Homo sapiens, 72 h) is greater than 1000 nM; in assay [2] (Homo sapiens, BT-474, 72 h), greater than 1000 nM; in assay [3], 100 to 1000 nM; in assay [4], 100 to 1000 nM.

Regarding `COc1ccc(Nc2nccc(-c3sc(C(C)C)nc3-c3cccc(NS(=O)(=O)c4ccccc4)c3)n2)cc1N1CCN(CCC#N)CC1` [Example 9, N-{3-[5-(2-{[3-[4-(2-Cyanoethyl)-1-piperazinyl]-4-(methyloxy)phenyl]amino}-4-pyrimidinyl)-2-(1-methylethyl)-1,3-thiazol-4-yl]phenyl}benzenesulfonamide], the 50% inhibitory concentration (IC50) was 100 to 1000 nM in assay [1] (Homo sapiens, 72 h); greater than 1000 nM in assay [2] (Homo sapiens, BT-474, 72 h); less than 100 nM in assay [3]; 100 to 1000 nM in assay [4].

As for `CC(=O)N1CCN(c2ccc(Nc3nccc(-c4sc(C(C)C)nc4-c4cccc(NS(=O)(=O)c5ccc(F)cc5)c4)n3)cn2)CC1` [Example 10, N-{3-[5-(2-{[6-(4-Acetyl-1-piperazinyl)-3-pyridinyl]amino}-4-pyrimidinyl)-2-(1-methylethyl)-1,3-thiazol-4-yl]phenyl}-4-fluorobenzenesulfonamide], the concentration for half-maximal inhibition (IC50) in assay [1] (Homo sapiens, 72 h) is greater than 1000 nM; in assay [2] (Homo sapiens, BT-474, 72 h) it was greater than 1000 nM; in assay [3], greater than 1000 nM; in assay [4], 100 to 1000 nM.

As to `CC(=O)N1CCN(c2ccc(Nc3nccc(-c4sc(C(C)C)nc4-c4cccc(NS(=O)(=O)c5cccc(F)c5)c4)n3)cn2)CC1` [Example 11, N-{3-[5-(2-{[6-(4-Acetyl-1-piperazinyl)-3-pyridinyl]amino}-4-pyrimidinyl)-2-(1-methylethyl)-1,3-thiazol-4-yl]phenyl}-3-fluorobenzenesulfonamide], the IC50 in assay [1] (Homo sapiens, 72 h) was greater than 1000 nM; in assay [2] (Homo sapiens, BT-474, 72 h) it was greater than 1000 nM; in assay [3] it was 100 to 1000 nM; in assay [4] it was less than 100 nM.

For `CC(=O)N1CCN(c2ccc(Nc3nccc(-c4sc(C(C)C)nc4-c4cccc(NS(=O)(=O)c5ccccc5F)c4)n3)cn2)CC1` [Example 12, N-{3-[5-(2-{[6-(4-Acetyl-1-piperazinyl)-3-pyridinyl]amino}-4-pyrimidinyl)-2-(1-methylethyl)-1,3-thiazol-4-yl]phenyl}-2-fluorobenzenesulfonamide], the IC50 in assay [1] (Homo sapiens, 72 h) is 100 to 1000 nM; in assay [2] (Homo sapiens, BT-474, 72 h), greater than 1000 nM; in assay [3] it was less than 100 nM; in assay [4] it was less than 100 nM.

As for `CC(C)c1nc(-c2cccc(NS(=O)(=O)c3c(F)cccc3F)c2)c(-c2ccnc(Nc3ccc(OC4CCN(CCS(C)(=O)=O)CC4)c(F)c3)n2)s1` [Example 13, 2,6-Difluoro-N-{3-[5-(2-{[3-fluoro-4-({1-[2-(methylsulfonyl)ethyl]-4-piperidinyl}oxy)phenyl]amino}-4-pyrimidinyl)-2-(1-methylethyl)-1,3-thiazol-4-yl]phenyl}benzenesulfonamide hydrochloride], the IC50 in assay [1] (Homo sapiens, 72 h) is 100 to 1000 nM; in assay [2] (Homo sapiens, BT-474, 72 h), greater than 1000 nM; in assay [3] it was 100 to 1000 nM; in assay [4], 100 to 1000 nM.

With `CC(C)c1nc(-c2cccc(NS(=O)(=O)c3c(F)cccc3F)c2)c(-c2ccnc(Nc3ccc(N4CCOCC4)c(C(=O)O)c3)n2)s1` [Example 14, 5-({4-[4-(3-{[(2,6-Difluorophenyl)sulfonyl]amino}phenyl)-2-(1-methylethyl)-1,3-thiazol-5-yl]-2-pyrimidinyl}amino)-2-(4-morpholinyl)benzoic acid], the IC50 is greater than 1000 nM in assay [1] (Homo sapiens, 72 h); greater than 1000 nM in assay [2] (Homo sapiens, BT-474, 72 h); 100 to 1000 nM in assay [3]; 100 to 1000 nM in assay [4].

As to `CC(C)c1nc(-c2cccc(NS(=O)(=O)c3c(F)cccc3F)c2)c(-c2ccnc(Nc3ccc(N4CCN5CCOC[C@H]5C4)nc3)n2)s1` [Example 15], the IC50 in assay [1] (Homo sapiens, 72 h) was 100 to 1000 nM; in assay [2] (Homo sapiens, BT-474, 72 h), greater than 1000 nM; in assay [3], 100 to 1000 nM; in assay [4], less than 100 nM.

With `CC(C)c1nc(-c2cccc(NS(=O)(=O)c3c(F)cccc3F)c2)c(-c2ccnc(Nc3ccc(N4CCN(CCS(C)(=O)=O)CC4)c(F)c3)n2)s1` [Example 16, 2,6-Difluoro-N-{3-[5-{2-[(3-fluoro-4-{4-[2-(methylsulfonyl)ethyl]-1-piperazinyl}phenyl)amino]-4-pyrimidinyl}-2-(1-methylethyl)-1,3-thiazol-4-yl]ohenyl}benzenesulfonamide hydrochloride], the IC50 in assay [1] (Homo sapiens, 72 h) was 100 to 1000 nM; in assay [2] (Homo sapiens, BT-474, 72 h), greater than 1000 nM; in assay [3], 100 to 1000 nM; in assay [4] it was less than 100 nM.

On to `CC(C)c1nc(-c2cccc(NS(=O)(=O)c3c(F)cccc3F)c2)c(-c2ccnc(Nc3ccc(N4CCOCC4)nc3)n2)s1` [Example 17, 2,6-Difluoro-N-{3-[2-(1-methylethyl)-5-(2-{[6-(4-morpholinyl)-3-pyridinyl]amino}-4-pyrimidinyl)-1,3-thiazol-4-yl]phenyl}benzenesulfonamide], for which the IC50 in assay [1] (Homo sapiens, 72 h) was 100 to 1000 nM; in assay [2] (Homo sapiens, BT-474, 72 h), greater than 1000 nM; in assay [3] it was 100 to 1000 nM; in assay [4] it was less than 100 nM.

Consider `COc1ccc(Nc2nccc(-c3sc(C(C)C)nc3-c3cccc(NS(=O)(=O)c4c(F)cccc4F)c3)n2)cc1N(C)C` [Example 18, N-{3-[5-(2-{[3-(Dimethylamino)-4-(methyloxy)phenyl]amino}-4-pyrimidinyl)-2-(1-methylethyl)-1,3-thiazol-4-yl]phenyl}-2,6-difluorobenzenesulfonamide trifluoroacetate], for which the concentration for half-maximal inhibition (IC50) is 100 to 1000 nM in assay [1] (Homo sapiens, 72 h); greater than 1000 nM in assay [2] (Homo sapiens, BT-474, 72 h); less than 100 nM in assay [3]; less than 100 nM in assay [4].

Consider `COc1cc(N2CCN(CCS(C)(=O)=O)CC2)c(C)cc1Nc1nccc(-c2sc(C(C)C)nc2-c2cccc(NS(=O)(=O)c3c(F)cccc3F)c2)n1` [Example 19], for which the half-inhibitory concentration (IC50) in assay [1] (Homo sapiens, 72 h) is greater than 1000 nM; in assay [2] (Homo sapiens, BT-474, 72 h), greater than 1000 nM; in assay [3], less than 100 nM; in assay [4] it was greater than 1000 nM.

Usually IC50 stands for the concentration at which inhibition is half-maximal.

Source of the values: patent publication US20110319392A1, “Thiazole Sulfonamide And Oxazole Sulfonamide Kinase Inhibitors” (priority 2009, published 2011).
